Assay results from patent publication US5639884A, “Arylidene-heterocyclic derivatives and process for their preparation” (Farmitalia Carlo Erba S.r.l., priority 1991, dated 1997).
pIC50: −log10 of the molar value.

Each compound was assayed against p45 v-abl tyrosine kinase (assay: Exogenous Substrate Kinase Assay: p45 v-abl kinase inhibition). Conditions: (Val^5)-Angiotensin II phosphorylation; 40 ng abl-kinase; peptide 2 mM, ATP 50 μM; pH 8.0, 30° C.; triplicate determinations.
Type: biochemical, Abelson murine leukemia virus
Description: Tyrosine kinase purification. The enzyme used in our test was the p45 v-abl tyrosine kinase which represents the catalytic domaine of the Abelson tyrosine kinase (isolated from the Abelson murine leukemia virus). The p45 v-abl kinase was produced and isolated as described by Wang et al. in J. Biol. Chem. 260, 64 (1985) and by Ferguson et al. in J. Biol. Chem. 260, 3652 (1985) and in Biochem. J. 257, 321 (1989).
Exogenous Substrate Kinase Assay. (Val^5)-Angiotensin II phosphorylation was performed by incubation with 40 ng of purified abl-kinase and (γ-^32 P)-ATP, in 50 μl of buffer containing Tris-HCl 25 mM, pH 8.0, MgCl2 10 mM and dithiothreitol 0.1 mM (kinase buffer). The reaction mixture was incubated for the indicated time at 30° C. and the reaction stopped by adding 50 μl of 5% trichloroacetic acid. After a brief incubation on ice, tubes were centrifuged. The supernatants were spotted on phosphocellulose paper squares (Whatman P-81) and washed extensively in acetic acid. The radioactivity bound to dried phosphocellulose squares was measured in a liquid scintillation counter. IC50 values were calculated from triplicate determinations of each experimental point. Each inhibitor was tested at concentrations ranging from […] in the presence of fixed concentrations of peptide (2 mM) and ATP (50 μM).

| SMILES | pIC50 |
| --- | --- |
| O=C1NC(=O)c2ccccc2C1=Cc1ccnc2ccccc12 [4-(4'-quinolyl)methylenehomophthalimide, (E,Z) -4-(4'-quinolyl)-methylenehomophthalimide] | 4.82 |
| O=C1NC(=O)c2ccccc2C1=Cc1ccc(O)cc1 [(E,Z)-4-(4'-hydroxyphenyl)methylenehomophthalimide] | 5.30 |
| O=S1(=O)Nc2ccccc2C1=Cc1c[nH]c2ccccc12 [(E,Z)-3-(3'-indolyl)methylene-2,1-benzisothiazoline-2,2-dioxide] | 3.95 |
| O=S1(=O)Nc2ccccc2C1=Cc1ccc(O)cc1 [(E,Z)-3-(4'-hydroxyphenyl)methylene-2,1-benzisothiazoline-2,2-dioxide] | 4.77 |
